Reference: patent US12606834B2 (priority 2015, dated 2026)

Tested on: E. coli R182
Assay type: cell-based, Escherichia coli
Text: We compared the combination of P1 CRISPR phage (targeting ftsA) and ciprofloxacin to the use of P1 CRISPR phage alone for killing E. coli R182, a ciprofloxacin-resistant strain (FIG. 10A). Ciprofloxacin (Cip) dose was the highest therapeutically relevant concentration (4 micrograms per milliliter) to which the R182 strain is known to be resistant. E. coli were infected with CRISPR phage targeting the E. coli ftsA gene at a range of multiplicities of infection (MOI).
In addition, the combination of P1 CRISPR phage (targeting ftsA) and imipenem, a standard of care antibiotic in E. coli infections, was compared with P1 CRISPR phage alone for killing E. coli R182, a ciprofloxacin-resistant strain (FIG. 10B). […] The E. coli cells were infected with CRISPR phage at a range of MOI.
Finally, we compared the loss of viable E. coli R182 cells following exposure to imipinem, P1 CRISPR phage targeting ftsA, or a combination of both (FIG. 10C). For relevant conditions (n=3 for each condition), imipenem was held at a constant dose (LD50 for E. coli R182) and CRISPR phage was held to a MOI of 2.

| Structure (SMILES) | CFU reduction (constant dose (the LD50 for E. coli R182), FIG. 10B) [log] | bacterial viability (ciprofloxacin alone, 4 micrograms per milliliter, FIG. 10A) |
| --- | --- | --- |
| C[C@@H](O)[C@H]1C(=O)N2C(C(=O)O)=C(SCCN=CN)C[C@H]12 [Imipenem, imipenem] | 0.3 | – |
| O=C(O)c1cn(C2CC2)c2cc(N3CCNCC3)c(F)cc2c1=O [ciprofloxacin] | – | did not reduce bacterial viability |
